According to PubChem BioAssay (NCI):
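96-well plates; 48 h exposure; 5 concentrations. Endpoints by linear interpolation between flanking doses. Not reached: highest tested concentration assigned. The concentration for full growth arrest is given as TGI.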

System: UACC-257 melanoma
Experiment: NCI-60 cell line screen, 48 h

Row | Structure (SMILES) | TGI
1 | CN(C)C(=O)O/N=C1/C(c2c(O)[nH]c3ccccc23)=Nc2ccccc21 | > 100 µM
2 | O=[N+]([O-])c1cccc(-c2csc(NNC3=NC/C(=C/c4ccc5c(c4)OCO5)S3)n2)c1 | > 100 µM
3 | CC(=O)NC(Cc1ccc(O)cc1)C(=O)O (configuration not stated) | > 100 µM
4 | COCO[C@@H]1C[C@H]2C(=O)Nc3ccccc3C(=O)N2C1 | > 100 µM
5 | CN1C(=O)C2CCC(=O)N2c2cccnc21 (configuration not stated) | > 100 µM
6 | Nc1c2c(nc3ccccc13)-c1ccccc1CC2 | 9.09 µM
7 | CC(=O)O[C@@H]1[C@H](C(C)C)[C@@H](OC(C)=O)C/C(C)=C/CC[C@]2(C)O[C@@H]12 | > 100 µM
8 | CCOC(=O)CSc1c(C(=O)OCC)c(=O)n(-c2ccccc2)c(=S)n1-c1ccccc1 | > 100 µM

System: OVCAR-4 ovarian
Experiment: NCI-60 cell line screen, 48 h

Row | Structure (SMILES) | TGI
9 | CN(C)C(=O)O/N=C1/C(c2c(O)[nH]c3ccccc23)=Nc2ccccc21 | 33.1 µM
10 | O=[N+]([O-])c1cccc(-c2csc(NNC3=NC/C(=C/c4ccc5c(c4)OCO5)S3)n2)c1 | > 100 µM
11 | CC(=O)NC(Cc1ccc(O)cc1)C(=O)O (configuration not stated) | > 100 µM
12 | COCO[C@@H]1C[C@H]2C(=O)Nc3ccccc3C(=O)N2C1 | > 100 µM
13 | CN1C(=O)C2CCC(=O)N2c2cccnc21 (configuration not stated) | > 100 µM
14 | CC(=O)O[C@@H]1[C@H](C(C)C)[C@@H](OC(C)=O)C/C(C)=C/CC[C@]2(C)O[C@@H]12 | > 100 µM
15 | CCOC(=O)CSc1c(C(=O)OCC)c(=O)n(-c2ccccc2)c(=S)n1-c1ccccc1 | > 100 µM

System: A549 NSCLC
Experiment: NCI-60 cell line screen, 48 h

Row | Structure (SMILES) | TGI
16 | CN(C)C(=O)O/N=C1/C(c2c(O)[nH]c3ccccc23)=Nc2ccccc21 | > 100 µM
17 | O=[N+]([O-])c1cccc(-c2csc(NNC3=NC/C(=C/c4ccc5c(c4)OCO5)S3)n2)c1 | > 100 µM
18 | CC(=O)NC(Cc1ccc(O)cc1)C(=O)O (configuration not stated) | > 100 µM
19 | COCO[C@@H]1C[C@H]2C(=O)Nc3ccccc3C(=O)N2C1 | > 100 µM
20 | CN1C(=O)C2CCC(=O)N2c2cccnc21 (configuration not stated) | > 100 µM
21 | CC(=O)O[C@@H]1[C@H](C(C)C)[C@@H](OC(C)=O)C/C(C)=C/CC[C@]2(C)O[C@@H]12 | > 100 µM
22 | CCOC(=O)CSc1c(C(=O)OCC)c(=O)n(-c2ccccc2)c(=S)n1-c1ccccc1 | > 100 µM

System: SF-295 CNS
Experiment: NCI-60 cell line screen, 48 h

Row | Structure (SMILES) | TGI
23 | CN(C)C(=O)O/N=C1/C(c2c(O)[nH]c3ccccc23)=Nc2ccccc21 | 68.8 µM
24 | O=[N+]([O-])c1cccc(-c2csc(NNC3=NC/C(=C/c4ccc5c(c4)OCO5)S3)n2)c1 | > 100 µM
25 | CC(=O)NC(Cc1ccc(O)cc1)C(=O)O (configuration not stated) | > 100 µM
26 | COCO[C@@H]1C[C@H]2C(=O)Nc3ccccc3C(=O)N2C1 | > 100 µM
27 | CN1C(=O)C2CCC(=O)N2c2cccnc21 (configuration not stated) | > 100 µM
28 | CC(=O)O[C@@H]1[C@H](C(C)C)[C@@H](OC(C)=O)C/C(C)=C/CC[C@]2(C)O[C@@H]12 | > 100 µM
29 | CCOC(=O)CSc1c(C(=O)OCC)c(=O)n(-c2ccccc2)c(=S)n1-c1ccccc1 | > 100 µM

System: RPMI-8226 leukemia
Experiment: NCI-60 cell line screen, 48 h

Row | Structure (SMILES) | TGI
30 | CN(C)C(=O)O/N=C1/C(c2c(O)[nH]c3ccccc23)=Nc2ccccc21 | > 100 µM
31 | O=[N+]([O-])c1cccc(-c2csc(NNC3=NC/C(=C/c4ccc5c(c4)OCO5)S3)n2)c1 | 93.5 µM
32 | CC(=O)NC(Cc1ccc(O)cc1)C(=O)O (configuration not stated) | > 100 µM
33 | CN1C(=O)C2CCC(=O)N2c2cccnc21 (configuration not stated) | > 100 µM
34 | Nc1c2c(nc3ccccc13)-c1ccccc1CC2 | 21.7 µM
35 | CC(=O)O[C@@H]1[C@H](C(C)C)[C@@H](OC(C)=O)C/C(C)=C/CC[C@]2(C)O[C@@H]12 | > 100 µM
36 | CCOC(=O)CSc1c(C(=O)OCC)c(=O)n(-c2ccccc2)c(=S)n1-c1ccccc1 | > 100 µM

System: A498 renal
Experiment: NCI-60 cell line screen, 48 h

Row | Structure (SMILES) | TGI
37 | CN(C)C(=O)O/N=C1/C(c2c(O)[nH]c3ccccc23)=Nc2ccccc21 | 18.1 µM
38 | O=[N+]([O-])c1cccc(-c2csc(NNC3=NC/C(=C/c4ccc5c(c4)OCO5)S3)n2)c1 | 37 µM
39 | CC(=O)NC(Cc1ccc(O)cc1)C(=O)O (configuration not stated) | > 100 µM
40 | COCO[C@@H]1C[C@H]2C(=O)Nc3ccccc3C(=O)N2C1 | > 100 µM
41 | Nc1c2c(nc3ccccc13)-c1ccccc1CC2 | 16.2 µM
42 | CC(=O)O[C@@H]1[C@H](C(C)C)[C@@H](OC(C)=O)C/C(C)=C/CC[C@]2(C)O[C@@H]12 | > 100 µM

System: EKVX NSCLC
Experiment: NCI-60 cell line screen, 48 h

Row | Structure (SMILES) | TGI
43 | CN(C)C(=O)O/N=C1/C(c2c(O)[nH]c3ccccc23)=Nc2ccccc21 | 33.5 µM
44 | O=[N+]([O-])c1cccc(-c2csc(NNC3=NC/C(=C/c4ccc5c(c4)OCO5)S3)n2)c1 | 41 µM
45 | CC(=O)NC(Cc1ccc(O)cc1)C(=O)O (configuration not stated) | > 100 µM
46 | COCO[C@@H]1C[C@H]2C(=O)Nc3ccccc3C(=O)N2C1 | > 100 µM
47 | CN1C(=O)C2CCC(=O)N2c2cccnc21 (configuration not stated) | > 100 µM
48 | CC(=O)O[C@@H]1[C@H](C(C)C)[C@@H](OC(C)=O)C/C(C)=C/CC[C@]2(C)O[C@@H]12 | > 100 µM
49 | CCOC(=O)CSc1c(C(=O)OCC)c(=O)n(-c2ccccc2)c(=S)n1-c1ccccc1 | > 100 µM

System: HOP-62 NSCLC
Experiment: NCI-60 cell line screen, 48 h

Row | Structure (SMILES) | TGI
50 | CN(C)C(=O)O/N=C1/C(c2c(O)[nH]c3ccccc23)=Nc2ccccc21 | 48.9 µM
51 | O=[N+]([O-])c1cccc(-c2csc(NNC3=NC/C(=C/c4ccc5c(c4)OCO5)S3)n2)c1 | > 100 µM
52 | CC(=O)NC(Cc1ccc(O)cc1)C(=O)O (configuration not stated) | > 100 µM
